Experimental data taken from paper PMC10825133, “Repurposing proteasome inhibitors for improved treatment of triple-negative breast cancer” (Cell Death Discovery, 2024).
Read-outs that look alike come from different tables or passages of the source.

Tests used:
Assay in all cases: Resazurin-based cell viability assay, monotherapy drug screen
Set-up in all cases: species or system human; AUC: scale not given here
BT-549 cells = conditions: BT-549; for AUC: area under the dose response curve, 24 h; for GRmax: drug efficacy at highest tested dose (<0 cytotoxic, 0 cytostatic, >0 partial growth inhibition)
Method in brief: (§1)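 Cells were seeded at the highest density (tested 1000-16000 cells/well) giving linear growth between days 1 and 3, keeping them in exponential phase over the ~52 h experiment. Viability was read after 4 h at 37 °C with 0.2 mg/ml resazurin added at 10% of medium volume; ex 560/em 615 nm.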

HCC1806 cells = conditions: HCC1806; for AUC: area under the dose response curve, 24 h; for GRmax: drug efficacy at highest tested dose (<0 cytotoxic, 0 cytostatic, >0 partial growth inhibition)
Method in brief: as §1

HCC38 cells = conditions: HCC38; for AUC: area under the dose response curve, 24 h; for GRmax: drug efficacy at highest tested dose (<0 cytotoxic, 0 cytostatic, >0 partial growth inhibition)
Method in brief: as §1

HCC70 cells = conditions: HCC70; for AUC: area under the dose response curve, 24 h; for GRmax: drug efficacy at highest tested dose (<0 cytotoxic, 0 cytostatic, >0 partial growth inhibition)
Method in brief: as §1

MCF-10A cells = conditions: for AUC: area under the dose response curve, 24 h
Method in brief: as §1

MCF-7 cells = conditions: MCF-7; for AUC: area under the dose response curve, 24 h; for GRmax: drug efficacy at highest tested dose (<0 cytotoxic, 0 cytostatic, >0 partial growth inhibition)
Method in brief: as §1

MDA-MB-436 cells = conditions: MDA-MB-436; for AUC: area under the dose response curve, 24 h; for GRmax: drug efficacy at highest tested dose (<0 cytotoxic, 0 cytostatic, >0 partial growth inhibition)
Method in brief: as §1

MDA-MB-453 cells = conditions: MDA-MB-453; for AUC: area under the dose response curve, 24 h
Method in brief: as §1

MDA-MB-468 cells = conditions: MDA-MB-468; for AUC: area under the dose response curve, 24 h
Method in brief: as §1

[1] = Homo sapiens, growth rate inhibition concentration at GR(c) = 0.5, 24 h, read-out: GR50 (the source's name)
[2] = Homo sapiens, 24 h drug treatment, read-out: IC50
[3] = Homo sapiens, MCF7, growth rate inhibition concentration at GR(c) = 0.5, 24 h, read-out: GR50 (the source's name)
[4] = 24 h drug treatment, read-out: IC50
[5] = growth rate inhibition concentration at GR(c) = 0.5, 24 h, read-out: GR50 (the source's name)
[6] = drug efficacy at highest tested dose (<0 cytotoxic, 0 cytostatic, >0 partial growth inhibition)

CC(=O)O[C@H]1C(=O)[C@@]2(C)[C@H]([C@H](OC(=O)c3ccccc3)[C@]3(O)C[C@H](OC(=O)[C@H](O)[C@@H](NC(=O)c4ccccc4)c4ccccc4)C(C)=C1C3(C)C)[C@]1(OC(C)=O)CO[C@@H]1C[C@@H]2O [Paclitaxel]
AUC (BT-549 cells): 0.87
GRmax (BT-549 cells): 0.58
AUC (HCC1806 cells): 0.72
GRmax (HCC1806 cells): 0.51
IC50 (HCC1806 cells; [1]): 840 nM
AUC (HCC38 cells): 0.81
GRmax (HCC38 cells): −0.50
IC50 (HCC38 cells; [2]): 7100 nM
IC50 (HCC38 cells; [1]): 110 nM
AUC (HCC70 cells): 0.86
GRmax (HCC70 cells): 0.46
IC50 (HCC70 cells; [1]): 380 nM
IC50 (MCF-10A cells; [2]): 860 nM
IC50 (MCF-10A cells; [1]): 98 nM
AUC (MCF-10A cells): 0.73
IC50 (MCF-7 cells; [3]): 41 nM
AUC (MCF-7 cells): 0.79
GRmax (MCF-7 cells): −0.56
IC50 (MDA-MB-436 cells; [1]): 55 nM
AUC (MDA-MB-436 cells): 0.78
GRmax (MDA-MB-436 cells): −0.97
AUC (MDA-MB-453 cells): 0.93
IC50 (MDA-MB-468 cells; [1]): 1400 nM
AUC (MDA-MB-468 cells): 0.81

CC(C)C[C@H](NC(=O)[C@@H](NC(=O)c1cccc(-c2ccccc2)n1)[C@@H](C)O)B(O)O [Delanzomib]
AUC (BT-549 cells): 0.73
GRmax (BT-549 cells): 0.48
AUC (HCC1806 cells): 0.74
GRmax (HCC1806 cells): 0.50
AUC (HCC38 cells): 0.42
GRmax (HCC38 cells): −0.97
IC50 (HCC38 cells; [2]): 12 nM
IC50 (HCC38 cells; [1]): 8.2 nM
AUC (HCC70 cells): 0.75
GRmax (HCC70 cells): −0.36
IC50 (HCC70 cells; [2]): 3300 nM
IC50 (HCC70 cells; [1]): 370 nM
IC50 (MCF-10A cells; [2]): 18 nM
IC50 (MCF-10A cells; [1]): 12 nM
AUC (MCF-10A cells): 0.62
IC50 (MCF-7 cells; [3]): 37 nM
AUC (MCF-7 cells): 0.77
GRmax (MCF-7 cells): −0.28
IC50 (MDA-MB-436 cells; [1]): 29 nM
AUC (MDA-MB-436 cells): 0.79
GRmax (MDA-MB-436 cells): −0.84
IC50 (MDA-MB-453 cells; [1]): 27 nM
AUC (MDA-MB-453 cells): 0.76
IC50 (MDA-MB-468 cells; [2]): 77 nM
IC50 (MDA-MB-468 cells; [1]): 11 nM
AUC (MDA-MB-468 cells): 0.58

N.N.[Cl][Pt][Cl] [Cisplatin]
IC50 (BT-549 cells; [4]): 53 nM
AUC (BT-549 cells): 0.57
GRmax (BT-549 cells): −0.16
IC50 (BT-549 cells; [5]): 35 nM
IC50 (HCC1806 cells; [4]): 48 nM
AUC (HCC1806 cells): 0.48
GRmax (HCC1806 cells): −0.72
IC50 (HCC1806 cells; [5]): 42 nM
IC50 (HCC38 cells; [4]): 30 nM
AUC (HCC38 cells): 0.45
GRmax (HCC38 cells): −0.67
IC50 (HCC38 cells; [5]): 19 nM
IC50 (HCC70 cells; [4]): 22 nM
AUC (HCC70 cells): 0.37
GRmax (HCC70 cells): −0.89
IC50 (HCC70 cells; [5]): 15 nM
IC50 (MCF-10A cells; [4]): 27 nM
AUC (MCF-10A cells): 0.42
GRmax (MCF-10A cells; [6]): −0.32
IC50 (MCF-10A cells; [5]): 28 nM
IC50 (MCF-7 cells; [4]): 160 nM
AUC (MCF-7 cells): 0.66
GRmax (MCF-7 cells): −0.96
IC50 (MCF-7 cells; [5]): 15 nM
IC50 (MDA-MB-436 cells; [4]): 64 nM
AUC (MDA-MB-436 cells): 0.62
GRmax (MDA-MB-436 cells): 0.17
IC50 (MDA-MB-436 cells; [5]): 43 nM
IC50 (MDA-MB-453 cells; [4]): 240 nM
AUC (MDA-MB-453 cells): 0.75
GRmax (MDA-MB-453 cells; [6]): 0.25
IC50 (MDA-MB-453 cells; [5]): 95 nM
IC50 (MDA-MB-468 cells; [4]): 15 nM
AUC (MDA-MB-468 cells): 0.37
GRmax (MDA-MB-468 cells; [6]): −0.46
IC50 (MDA-MB-468 cells; [5]): 7.5 nM

COc1cccc2c1C(=O)c1c(O)c3c(c(O)c1C2=O)C[C@@](O)(C(=O)CO)C[C@@H]3O[C@H]1C[C@H](N)[C@H](O)[C@H](C)O1 [Doxorubicin]
AUC (BT-549 cells): 0.89
GRmax (BT-549 cells): 0.36
IC50 (BT-549 cells; [2]): 7600 nM
IC50 (BT-549 cells; [1]): 5600 nM
AUC (HCC1806 cells): 0.87
GRmax (HCC1806 cells): 0.54
IC50 (HCC1806 cells; [1]): 6000 nM
AUC (HCC38 cells): 0.83
GRmax (HCC38 cells): 0.01
IC50 (HCC38 cells; [2]): 2900 nM
IC50 (HCC38 cells; [1]): 770 nM
AUC (HCC70 cells): 0.88
GRmax (HCC70 cells): −0.35
IC50 (HCC70 cells; [2]): 3300 nM
IC50 (HCC70 cells; [1]): 1800 nM
IC50 (MCF-10A cells; [2]): 990 nM
IC50 (MCF-10A cells; [1]): 980 nM
AUC (MCF-10A cells): 0.72
IC50 (MCF-7 cells; Homo sapiens, MCF7, 24 h drug treatment, read-out: IC50): 1800 nM
IC50 (MCF-7 cells; [3]): 5700 nM
AUC (MCF-7 cells): 0.93
GRmax (MCF-7 cells): 0.44
IC50 (MDA-MB-436 cells; [2]): 9700 nM
IC50 (MDA-MB-436 cells; [1]): 3400 nM
AUC (MDA-MB-436 cells): 0.85
GRmax (MDA-MB-436 cells): 0.26
IC50 (MDA-MB-453 cells; [2]): 8100 nM
IC50 (MDA-MB-453 cells; [1]): 4600 nM
AUC (MDA-MB-453 cells): 0.88
IC50 (MDA-MB-468 cells; [2]): 3000 nM
IC50 (MDA-MB-468 cells; [1]): 1500 nM
AUC (MDA-MB-468 cells): 0.84

CC(C)C[C@H](NC(=O)[C@H](CCc1ccccc1)NC(=O)CN1CCOCC1)C(=O)N[C@@H](Cc1ccccc1)C(=O)N[C@@H](CC(C)C)C(=O)[C@@]1(C)CO1 [Carfilzomib]
AUC (BT-549 cells): 0.67
GRmax (BT-549 cells): 0.37
IC50 (BT-549 cells; [2]): 4400 nM
IC50 (BT-549 cells; [1]): 1000 nM
AUC (HCC1806 cells): 0.73
GRmax (HCC1806 cells): 0.31
IC50 (HCC1806 cells; [2]): 1700 nM
IC50 (HCC1806 cells; [1]): 950 nM
AUC (HCC38 cells): 0.71
GRmax (HCC38 cells): −0.99
IC50 (HCC38 cells; [2]): 570 nM
IC50 (HCC38 cells; [1]): 380 nM
AUC (HCC70 cells): 0.76
GRmax (HCC70 cells): −0.57
IC50 (HCC70 cells; [2]): 2100 nM
IC50 (HCC70 cells; [1]): 480 nM
IC50 (MCF-10A cells; [2]): 540 nM
IC50 (MCF-10A cells; [1]): 110 nM
AUC (MCF-10A cells): 0.66
IC50 (MCF-7 cells; [3]): 190 nM
AUC (MCF-7 cells): 0.81
GRmax (MCF-7 cells): −0.45
IC50 (MDA-MB-436 cells; [1]): 1.8 nM
AUC (MDA-MB-436 cells): 0.73
GRmax (MDA-MB-436 cells): −0.89
IC50 (MDA-MB-453 cells; [1]): 220 nM
AUC (MDA-MB-453 cells): 0.77
IC50 (MDA-MB-468 cells; [2]): 460 nM
IC50 (MDA-MB-468 cells; [1]): 110 nM
AUC (MDA-MB-468 cells): 0.65
